Measurements from patent US20240408169A1 (priority 2023, published 2024).
*1 amine or outer side, *2 acyl side, *3 side chain or, on linkers, in order; H or OH if unused. Where a SMILES comes first, the peptide text is derived from it. Bridges are numbered along the chain shown (N, C = ends). [ ]: non-standard residue; d: D form. The star is where a group is joined. X114 = CN([C@@H](Cc1cc(Cl)ccc1-c1ccc(OCCN2CCOCC2)cc1)C(=O)[*:2])[*:1]; X93 = CN([C@@H](Cc1cc(Cl)ccc1-c1ccc(OC2CCOCC2)cc1)C(=O)[*:2])[*:1]; X68 = CN([C@@H](Cc1cc(Cl)ccc1-c1cnn(C2CC2)c1)C(=O)[*:2])[*:1]; X79 = CC(C)n1cc(-c2ccc(Cl)cc2C[C@@H](C(=O)[*:2])N(C)[*:1])cn1; X60 = CN([C@@H](Cc1cc(Cl)ccc1-c1cnn2ccncc12)C(=O)[*:2])[*:1]; X76 = CN([C@@H](Cc1cc(Cl)ccc1-c1cnn2cccnc12)C(=O)[*:2])[*:1]; X97 = CN([C@@H](Cc1cc(Cl)ccc1-c1ccn2ncnc2c1)C(=O)[*:2])[*:1]; NMehhhLys(Me) = CN([C@@H](CCCCCCCN(C)[*:3])C(=O)[*:2])[*:1]; X29 = CN([C@@H](Cc1cc(Cl)ccc1-c1cn[nH]c1)C(=O)[*:2])[*:1]; cBuCO(3,3-F2-1-CF3) = O=C(C1(C(F)(F)F)CC(F)(F)C1)*; Pro(trans-4-F) = O=C(O)[C@@H]1C[C@@H](F)CN1; Gly(cPr) = N[C@H](C(=O)O)C1CC1

Experiments:
NCI-H1048 cells = experiment: MTT proliferation assay, NCI-H1048; format: cell-based; settings: 5 days compound exposure, 1:3 serial dilution starting at 10 μM;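 also: Dose-response in 96-well plates over 8 or 10 concentration points, with exposure spanning 3-4 cell doublings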
CyclinA2/CDK2 = molecular target: T1, CyclinA2/CDK2 (Homo sapiens, UniProt P20248); experiment: Fluorescence Polarization (FP) competitive binding assay, Cyclin A2/Cdk2; settings: 8 nM Cyclin A2/Cdk2, 2 nM FAM probe; average of 2-3 independent experiments; read-out: Cyclin A FP IC50;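 also: plates equilibrated two hours at room temperature before polarization reading, IC50 fitted from eight-concentration compound titration curves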
T1 construct: purchased CRELUX Protein Services

CyclinB1/CDK1 = molecular target: T2, CyclinB1/CDK1 (Homo sapiens, UniProt P14635); experiment: Fluorescence Polarization (FP) competitive binding assay, Cyclin B1/Cdk1; settings: 10 nM Cyclin B1/Cdk1, 2 nM FAM probe; average of 2-3 independent experiments; read-out: Cyclin B FP IC50;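 also: fluorescence polarization read after equilibration at room temperature, with IC50 taken from serially diluted dose-response curves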
T2 construct: purchased Eurofins, discovery 14-450

OVCAR3 cells = experiment: MTT proliferation assay, OVCAR3; format: cell-based; settings: 5 days compound exposure, 1:3 serial dilution starting at 10 μM;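 also: compound given as an 8- or 10-point series, one day after plating, with exposure covering roughly 3-4 cell doublings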
WI-38 cells = experiment: MTT proliferation assay, WI-38; format: cell-based; settings: 3 days compound exposure, 1:3 serial dilution starting at 10 μM;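 also: Eight- or ten-point dilution series, with exposure length chosen to span about three to four cell doublings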
CyclinE1/CDK2 = molecular target: T3, CyclinE1/CDK2 (Homo sapiens, UniProt P24864); experiment: Fluorescence Polarization (FP) competitive binding assay, Cyclin E1/Cdk2; settings: 10 nM Cyclin E1/Cdk2, 2 nM FAM probe; average of 2-3 independent experiments; read-out: Cyclin E FP IC50;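 also: readings taken after two-hour equilibration at room temperature in HEPES buffer with NaCl, DTT, NP-40 and BSA, IC50 fitted from eight-concentration serial dilution series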
T3 construct: purchased Eurofins, discovery 14-475

Row | Structure (SMILES) | GI50 (NCI-H1048 cells) [nM] | IC50 (CyclinA2/CDK2) [nM] | IC50 (CyclinB1/CDK1) [nM] | GI50 (OVCAR3 cells) [nM] | GI50 (WI-38 cells) [nM] | IC50 (CyclinE1/CDK2) [nM]
1 | CC(C)C[C@@H]1NC(=O)[C@@H](N(C)C(=O)[C@@H](NC(=O)[C@@H]2C[C@@H](F)CN2C(=O)C2(C(F)(F)F)CC(F)(F)C2)C2CC2)CCCCCCCN(C)C(=O)[C@H](Cc2cc(Cl)ccc2-c2ccc(OC3CCOCC3)cc2)N(C)C1=O [Example 340] ({cBuCO(3,3-F2-1-CF3)}-[Pro(trans-4-F)][Gly(cPr)][NMehhhLys(Me)]L[X93]; lactam 3-C) | 20 | 20 | 20 | 20 | 17300 | 1650
2 | CC(C)C[C@@H]1NC(=O)[C@@H](N(C)C(=O)[C@@H](NC(=O)[C@@H]2C[C@@H](F)CN2C(=O)C2(C(F)(F)F)CC(F)(F)C2)C2CC2)CCCCCCCN(C)C(=O)[C@H](Cc2cc(Cl)ccc2-c2cnn3cccnc23)N(C)C1=O [Example 297] ({cBuCO(3,3-F2-1-CF3)}-[Pro(trans-4-F)][Gly(cPr)][NMehhhLys(Me)]L[X76]; lactam 3-C) | 20 | 40 | 20 | 30 | 9150 | 1270
3 | CC(C)C[C@@H]1NC(=O)[C@@H](N(C)C(=O)[C@@H](NC(=O)[C@@H]2C[C@@H](F)CN2C(=O)C2(C(F)(F)F)CCC2)C2CC2)CC=CCCCCNC(=O)[C@H](Cc2cc(Cl)ccc2-c2cnn(CCO)c2)N(C)C1=O [Example 33] | 90 | 20 | 20 | 170 | 15600 | 270
4 | CC(C)C[C@@H]1NC(=O)[C@@H](N(C)C(=O)[C@@H](NC(=O)[C@@H]2C[C@@H](F)CN2C(=O)C2(C(F)(F)F)CC(F)(F)C2)C2CC2)CCCCCCCN(C)C(=O)[C@H](Cc2cc(Cl)ccc2-c2ccn3ncnc3c2)N(C)C1=O [Example 179] ({cBuCO(3,3-F2-1-CF3)}-[Pro(trans-4-F)][Gly(cPr)][NMehhhLys(Me)]L[X97]; lactam 3-C) | 10 | 30 | 20 | 30 | 11600 | 1130
5 | CC(C)C[C@@H]1NC(=O)[C@@H](N(C)C(=O)[C@@H](NC(=O)[C@@H]2C[C@@H](F)CN2C(=O)C2(C(F)(F)F)CC(F)(F)C2)C2CC2)C/C=C\CCCCN(C)C(=O)[C@H](Cc2cc(Cl)ccc2-c2cnn(C3CC3)c2)N(C)C1=O [Example 175] | 10 | 20 | 20 | 10 | 6850 | 130
6 | CC(C)C[C@@H]1NC(=O)[C@@H](N(C)C(=O)[C@@H](NC(=O)[C@@H]2C[C@@H](F)CN2C(=O)C2(C(F)(F)F)CCC2)C2CC2)CC=CCCCCN(C)C(=O)[C@H](Cc2cc(Cl)cnc2OC(C)C)N(C)C1=O [Example 137] | 600 | 60 | 20 | 760 | 4580 | 130
7 | CC(C)C[C@@H]1NC(=O)[C@@H](N(C)C(=O)[C@@H](NC(=O)[C@@H]2C[C@@H](F)CN2C(=O)C2(C(F)(F)F)CC(F)(F)C2)C2CC2)CCCCCCCN(C)C(=O)[C@H](Cc2cc(Cl)ccc2-c2cnn3ccncc23)N(C)C1=O [Example 305] ({cBuCO(3,3-F2-1-CF3)}-[Pro(trans-4-F)][Gly(cPr)][NMehhhLys(Me)]L[X60]; lactam 3-C) | 10 | 50 | 20 | 20 | 19200 | 1750
8 | CC(=O)N1[C@H]2CC[C@@H]1C=C(c1ccc(Cl)cc1C[C@H]1C(=O)N(C)CCCCCCC[C@H](N(C)C(=O)[C@@H](NC(=O)[C@@H]3C[C@@H](F)CN3C(=O)C3(C(F)(F)F)CC(F)(F)C3)C3CC3)C(=O)N[C@@H](CC(C)C)C(=O)N1C)C2 (single isomer, unassigned) [Example 57-P1] | 10 | 20 | 20 | 10 | 13800 | 1410
9 | CC(=O)N1CC=C(c2ccc(Cl)cc2C[C@H]2C(=O)NCCCCC=CC[C@H](N(C)C(=O)[C@@H](NC(=O)[C@@H]3C[C@@H](F)CN3C(=O)C3(C(F)(F)F)CC(F)(F)C3)C3CC3)C(=O)N[C@@H](CC(C)C)C(=O)N2C)CC1 [Example 18] | 170 | 90 | 20 | 340 | 9030 | 6190
10 | CC(C)C[C@@H]1NC(=O)[C@@H](N(C)C(=O)[C@@H](NC(=O)[C@@H]2C[C@@H](F)CN2C(=O)C2(C(F)(F)F)CC(F)(F)C2)C2CC2)CCCCCCCN(C)C(=O)[C@H](Cc2cc(Cl)ccc2-c2cnn(C(C)C)c2)N(C)C1=O [Example 111] ({cBuCO(3,3-F2-1-CF3)}-[Pro(trans-4-F)][Gly(cPr)][NMehhhLys(Me)]L[X79]; lactam 3-C) | 10 | 20 | 20 | 10 | 8130 | 280
11 | CC(C)C[C@@H]1NC(=O)[C@@H](N(C)C(=O)[C@@H](NC(=O)[C@@H]2C[C@@H](F)CN2C(=O)C2(C(F)(F)F)CC(F)(F)C2)C2CC2)CCCCCCN(C)C(=O)[C@H](Cc2cc(Cl)ccc2-c2cnn(C)c2)N(C)C1=O [Example 72] | 40 | 30 | 20 | 60 | 14900 | 1050
12 | CC(C)C[C@@H]1NC(=O)[C@@H](N(C)C(=O)[C@@H](NC(=O)[C@@H]2C[C@@H](F)CN2C(=O)C2(C(F)(F)F)CCC2)C2CC2)CC=CCCCCNC(=O)[C@H](Cc2cc(Cl)cnc2OC(C)C)N(C)C1=O (single isomer, unassigned) [Example 136-P2] | 450 | 80 | 20 | 640 | 6670 | 120
13 | CC(C)C[C@@H]1NC(=O)[C@@H](N(C)C(=O)[C@@H](NC(=O)[C@@H]2C[C@@H](F)CN2C(=O)C2(C(F)(F)F)CC(F)(F)C2)C2CC2)CC=CCCCCNC(=O)[C@H](Cc2cc(Cl)ccc2C2=CCN(C(=O)C3CC3)CC2)N(C)C1=O [Example 89] | 310 | 120 | 20 | 380 | 4340 | 5410
14 | CC(C)C[C@@H]1NC(=O)[C@@H](N(C)C(=O)[C@@H](NC(=O)[C@@H]2C[C@@H](F)CN2C(=O)C2(C(F)(F)F)CC(F)(F)C2)C2CC2)CCCCCCCN(C)C(=O)[C@H](Cc2cc(Cl)ccc2-c2cnn(C3CC3)c2)N(C)C1=O [Example 110] ({cBuCO(3,3-F2-1-CF3)}-[Pro(trans-4-F)][Gly(cPr)][NMehhhLys(Me)]L[X68]; lactam 3-C) | 10 | 20 | 20 | 10 | 4800 | 330
15 | CCOC(=O)N1CC=C(c2ccc(Cl)cc2C[C@H]2C(=O)NCCCCC=CC[C@H](N(C)C(=O)[C@@H](NC(=O)[C@@H]3C[C@@H](F)CN3C(=O)C3(C(F)(F)F)CC(F)(F)C3)C3CC3)C(=O)N[C@@H](CC(C)C)C(=O)N2C)CC1 [Example 53, Ethyl 4-(4-chloro-2-(((3S,6S,9S)-9-((S)-2-cyclopropyl-2-((2S,4R)-1-(3,3-difluoro-1-(trifluoromethyl)cyclobutane-1-carbonyl)-4-fluoropyrrolidine-2-carboxamido)-N-methylacetamido)-6-isobutyl-4-methyl-2,5,8-trioxo-1,4,7-triazacyclohexadec-11-en-3-yl)methyl)phenyl)-3,6-dihydropyridine-1 (2H)-carboxylate] | 180 | 90 | 20 | 180 | 4500 | 12400
16 | CC(C)C[C@@H]1NC(=O)[C@@H](N(C)C(=O)[C@@H](NC(=O)[C@@H]2C[C@@H](F)CN2C(=O)C2(C(F)(F)F)CC(F)(F)C2)C2CC2)CCCCCCCN(C)C(=O)[C@H](Cc2cc(Cl)ccc2-c2cn[nH]c2)N(C)C1=O [Example 167] ({cBuCO(3,3-F2-1-CF3)}-[Pro(trans-4-F)][Gly(cPr)][NMehhhLys(Me)]L[X29]; lactam 3-C) | 10 | 20 | 20 | 10 | 19700 | 280
17 | CC(C)C[C@@H]1NC(=O)[C@@H](N(C)C(=O)[C@@H](NC(=O)[C@@H]2C[C@@H](F)CN2C(=O)C2(C(F)(F)F)CC(F)(F)C2)C2CC2)CCCCCCCN(C)C(=O)[C@H](Cc2cc(Cl)ccc2-c2ccc(OCCN3CCOCC3)cc2)N(C)C1=O [Example 339] ({cBuCO(3,3-F2-1-CF3)}-[Pro(trans-4-F)][Gly(cPr)][NMehhhLys(Me)]L[X114]; lactam 3-C) | 10 | 20 | 20 | 10 | 5620 | 400
18 | CC(C)C[C@@H]1NC(=O)[C@@H](N(C)C(=O)[C@@H](NC(=O)[C@@H]2C[C@@H](F)CN2C(=O)C2(C(F)(F)F)CC(F)(F)C2)C2CC2)CC=CCCCCNC(=O)[C@H](Cc2cc(Cl)cnc2OC2CC2)N(C)C1=O [Example 129] | 1460 | 210 | 20 | 2580 | 6880 | 820
19 | CC(=O)N1[C@H]2CC[C@@H]1C=C(c1ccc(Cl)cc1C[C@H]1C(=O)N(C)CCCCCCC[C@H](N(C)C(=O)[C@@H](NC(=O)[C@@H]3C[C@@H](F)CN3C(=O)C3(C(F)(F)F)CC(F)(F)C3)C3CC3)C(=O)N[C@@H](CC(C)C)C(=O)N1C)C2 (single isomer, unassigned) [Example 57-P2] | 10 | 20 | 20 | 10 | 16900 | 1310
